“And” between values parts separate entries of the source, which are not always exact repeats. Equal entries are not always repeated.
Assay: wn = mass fraction of the nth substance listed
Conditions: Liquid, Pulse-echo method, w2 = 0.49

CC(F)(F)F [1,1,1-trifluoroethane] + FC(F)C(F)(F)F
speed of sound
Conditions | 265.62 K | 273.14 K | 280.7 K | 288.18 K
940 kPa | – | 500.1 m/s | – | –
1010 kPa | – | 500.9 m/s | – | –
1130 kPa | – | 502.3 m/s | – | 427.1 m/s
1140 kPa | – | – | 465.9 m/s | –
1160 kPa | – | – | 466.2 m/s | –
1190 kPa | – | – | – | 428.3 m/s
1210 kPa | – | – | 466.5 m/s | –
1260 kPa | – | 503.8 m/s | 467.5 m/s | 429.1 m/s
1380 kPa | – | 505.3 m/s | 469.1 m/s | –
1500 kPa | – | 506.6 m/s | 471 m/s | 432.9 m/s
1630 kPa | – | 508.1 m/s | 472.4 m/s | 434.9 m/s
1750 kPa | – | 509.5 m/s | 473.9 m/s | 436.7 m/s and 436.6 m/s
2010 kPa | – | 512.5 m/s | 477.2 m/s | –
2250 kPa | – | 515.3 m/s | 480.2 m/s | –
2510 kPa | – | 518.1 m/s | 483.5 m/s | –
2750 kPa | – | 520.9 m/s | 486.6 m/s | –
3010 kPa | – | 523.7 m/s | 489.8 m/s | –
3500 kPa | – | 529.2 m/s | 495.6 m/s | –
4000 kPa | – | 534.4 m/s | 501.4 m/s | –
4500 kPa | – | 539.5 m/s | 507.2 m/s | –
5000 kPa | – | 544.6 m/s | 512.8 m/s | –
6010 kPa | – | 554.2 m/s | 523.3 m/s | –
7010 kPa | – | 563.6 m/s | 533.5 m/s | –
8000 kPa | – | 572.9 m/s | 543.1 m/s | –
9000 kPa | – | 581.6 m/s | 552.7 m/s | –
10000 kPa | – | 590.2 m/s | 561.9 m/s | –
12000 kPa | – | 606.5 m/s | 579.4 m/s | –
14000 kPa | 649.8 m/s | 622 m/s | 595.5 m/s | –
16010 kPa | 663.9 m/s | 636.6 m/s | 611 m/s | –
18000 kPa | 677.1 m/s | 650.5 m/s | 625.4 m/s | –
20000 kPa | 690.1 m/s | 663.8 m/s | 639.5 m/s | –
23000 kPa | 708.2 m/s | 683.2 m/s | 659.6 m/s | –
26000 kPa | 725.7 m/s | 701.6 m/s | 678.2 m/s | –
29010 kPa | 742.6 m/s | 718.9 m/s | 696.3 m/s | –
32000 kPa | 758.5 m/s | 735.3 m/s | 713.7 m/s | –
35000 kPa | 773.9 m/s | 751.1 m/s | 729.9 m/s | –
40000 kPa | 798.3 m/s | 775.8 m/s | 755.3 m/s | –
45000 kPa | 821.3 m/s | 799.7 m/s | 779.7 m/s | –
50000 kPa | 843.1 m/s | 822 m/s | 802.7 m/s | –
55000 kPa | 863.8 m/s | 843.4 m/s | 824.2 m/s | –
60000 kPa | 883.7 m/s | 863.4 m/s | 845.1 m/s | –
65000 kPa | 902.8 m/s | 882.8 m/s | 864.9 m/s | –
